In ChEMBL document CHEMBL3507680, “University of Dundee, Gates Library screen for HepG2 cell viability”:

Experiment: Human HepG2 cell viability assay in 384 well format
Format: toxicity, cell-based
Parameters: dose 125 nL, time 70.5 hour; concentration not given beside the values
Conditions: HepG2 cells, read-out: Inhibition

SMILES	cytotoxicity at 70.5 h
CCCNC(=O)CCNc1cncc(-n2nc(C)cc2C)n1	-4.63%
CCOC(=O)c1n[nH]cc1-c1cncn1CCCn1nc(C)cc1C	-5.33%
CCOCC1CN(Cc2cc(C)on2)Cc2cn(C)nc21 (stereo not given)	4.78%
CC(C)N1CCC(c2nccnc2Nc2cnccn2)CC1	17.9%
C[C@@H]1CN(Cc2cc3ccccc3n2C)CC[C@@]1(O)C1CC1	-3.91%
O=C(NCC1CCOC1)c1cc(-c2ccc(F)cc2)[nH]n1 (stereo not given)	-10.8%
O=C1NCCO[C@H]2CN(C(=O)CCc3ccc(Cl)cc3)CC[C@@H]12	-17.3%
CC(C)C(NC(=O)Nc1ccccn1)c1cccs1 (stereo not given)	28.6%
O=C(COC[C@H]1CC[C@H]2[C@H](CCN2c2ccccn2)O1)N1CCCC1	-111%
O=C(N1CCCC1)N1CCC2(CC1)COCCN(Cc1cccnc1)C2	-4.16%
CC(NCCCN1CCCC1=O)c1cc(Br)ccc1F (stereo not given)	-5.24%
CS(=O)(=O)NCC1CCCCN1C(=O)c1csc(-c2ccsc2)n1 (stereo not given)	0.102%
CC(C)(C)c1noc(CCC(=O)N(CC2CCOC2)C2CC2)n1 (stereo not given)	2.82%
CC(C)c1sc(Cl)nc1C(=O)N1CCN(c2ccccc2)CC1	28.2%
CC(C)=CCN1C[C@H]2CC[C@@H]1CN(C(=O)c1ccc3c(c1)OCO3)C2	1.98%
Cc1nc(C(C)C)ncc1C(=O)N1CCCC(N2CCCC2)C1 (stereo not given)	6.69%
OC(CN(Cc1ccccc1)Cc1cscn1)c1cccs1 (stereo not given)	-2.62%
COCCC1(CO)CCCN(C(=O)c2cc(=O)[nH]c(=O)[nH]2)C1 (stereo not given)	-8.57%
CC(=O)c1c(O)ccnc1C(F)(F)F	-3.79%
Cc1nc(CCNC(C)c2ccc3c(c2)OCCCO3)cs1 (stereo not given)	0.884%
CC(C)COc1cncc(N2CCCN(c3ncccn3)CC2)n1	-7.71%
Cc1cc(C(=O)N2CCN(C(=O)CC(C)C)[C@@H]3CS(=O)(=O)C[C@@H]32)no1	-11.9%
O=C(Cn1cc(Cl)cn1)N1CCCC(c2cc3ccccc3cn2)C1 (stereo not given)	23.4%

SMILES	cytotoxicity at 70.5 h
C[C@@H]1C(=O)NC[C@H]2CN(Cc3ccsc3)C[C@H]21	-2.8%
CN1CCN(c2nc(O)c3c(-c4ccccn4)ccnc3n2)CC1	-3.01%
Cc1nccn1CCCN1CCCC(c2nccn2CC2CCC2)C1 (stereo not given)	-12.7%
Nc1nccnc1CC1CCCN(Cc2cccc3[nH]ccc23)C1 (stereo not given)	0.122%
COc1ccncc1NCc1ccsc1	-2.45%
CN(C)Cc1nnc(C2CCCN(c3nccc4ccccc34)C2)n1C (stereo not given)	-12.2%
CCc1ncncc1C(=O)N1CCCC(n2nc(C)nc2C)C1 (stereo not given)	-1.23%
CCN1CCC(NC(=O)CN2CCc3c(ncn3C)C2)CC1	2.11%
CCc1cc(N2CCSCC2)n2nc(C)c(C)c2n1	12.2%
O=C1O[C@@H]2CN(Cc3ccccc3)C[C@@H]2N1CCCN1CCOCC1	-7.7%
COCCN1C[C@H]2CC[C@@H]1CN(Cc1ccc3ccccc3n1)C2	-5.95%
CCNC(=O)NC(=O)CN1CCC(c2c[nH]c3ccc(OC)cc23)CC1	24.1%
CCOCCN1CCN(CC(=O)N2CCCC2)CC1C (stereo not given)	-7.94%
N#Cc1cccc(C(=O)N2CC(c3nc(-c4ccc[nH]c4=O)no3)C2)c1	-1.92%
CCN(Cc1cnn(C)c1)C(=O)c1ccccc1O	-6.92%
Cc1ccc(C(=O)N2CCOc3nc(C)ccc32)c(F)c1	26.7%
COc1ccc(C(=O)CCC(=O)NCc2ncc(C)s2)cc1F	-9.89%
CCn1cnnc1CNC(=O)c1ccc(Cl)cc1I	-7.84%
CN(Cc1ccsc1)C(=O)Nc1ccc(N2CCCC2)nc1	0.563%
Cc1ccc(CC(=O)NCC(Cc2ccc(F)cc2)C(N)=O)cn1 (stereo not given)	-0.982%
CCN(Cc1nc2c(cnn2C)c(=O)[nH]1)Cc1ccccc1C	1.06%
COc1nc(C)c(C(=O)N(C)Cc2nc(-c3ccccn3)no2)s1	5.05%
CC(C)(C)c1cnc(CNc2cccc(Cn3cnnc3)c2)o1	-2.54%

SMILES	cytotoxicity at 70.5 h
O=C(NCC(F)(F)F)c1ccc(-n2cncn2)nn1	1.36%
CCn1nc(C)c(CCNC(=O)c2coc(CN3CCOCC3)c2)c1C	0.862%
Cn1nnnc1SCCNC(=O)C1CCN(C(=O)C2CC2)CC1	24.5%
COc1ccc(C2CCCN2Cc2nc3c(cnn3C)c(=O)[nH]2)cc1 (stereo not given)	-8.35%
NC(=O)C1CCCN(C(=O)c2cnc3c(cnn3C3CCCC3)c2)C1 (stereo not given)	33%
CCOc1ncccc1NC(=O)Nc1c(C)nn(C(C)C)c1C	-4.11%
O=C(O)c1ccn(-c2ccccc2NC(=O)c2ccccc2Cl)n1	-3.53%
OCC(O)CSCc1ccc(Cl)cc1Cl (stereo not given)	0.304%
CC(C)=CCN1CCN(Cc2nc3ccccc3[nH]2)[C@H]2CS(=O)(=O)C[C@H]21	-8.69%
CC(C(=O)Nc1cccc(C(F)(F)F)c1)N(C)CCN1CCOCC1 (stereo not given)	-8.82%
COc1ccc(C(C)NC(=O)N2CCNC(=O)CC2)cc1F (stereo not given)	-1.24%
O=C(NCCn1ccnc1)N1CCCC1c1cccs1 (stereo not given)	2.2%
CCN1CCN(CCCNC(=O)NC(C)c2nncn2C)CC1 (stereo not given)	2.39%
COCC1CN(Cc2ccc(C)s2)Cc2nnn(C)c21 (stereo not given)	2.8%
CCN(C)c1ccc(C(=O)NCCCc2ccccn2)cn1	-4.13%
CC(C)C1CCCN1CCCc1nc(-c2cccs2)no1 (stereo not given)	2.81%
CC(=O)CC(C)(C)NC(=O)CCN(C)Cc1ccc(Cl)s1	-9.29%
CCc1nccn1-c1cccc(C2CCCN2)n1 (stereo not given)	-1.73%
c1ccc2c(N3CCCC3Cn3cccn3)ncnc2c1 (stereo not given)	4.1%
c1cnc(N2CCCC3(COCCN(CC4CC4)C3)C2)nc1 (stereo not given)	-10%
CC(C)(C)OC(=O)N1CCC(NC2CC2)CC1	-7.1%
Cc1noc(C)c1CC(=O)NCC1(O)CCCN(c2ccccn2)C1 (stereo not given)	13.4%
N#Cc1cccc(NC2CC(=O)N(Cc3cccc(F)c3)C2)n1 (stereo not given)	-8.43%

SMILES	cytotoxicity at 70.5 h
CC(C)c1cc(NC(CO)CO)n2nccc2n1	-10.2%
Cc1noc(CNc2c(N3CCCC3)cccc2N2CCCC2)n1	7.99%
O=C(Cc1cccs1)NCc1ccnc(OC2CCOCC2)c1	-6.12%
O=C(NC1CC1)[C@H]1CN(Cc2ccccc2)C[C@@H]1C(=O)c1ccccc1	-3.57%
C=Cn1ncc(CN2CCC(c3ncc(Cl)cc3S(C)(=O)=O)CC2)c1C	10%
CCNC(=O)NC(=O)CN1CCOC(c2cccc(Br)c2)C1 (stereo not given)	-8.56%
CS(=O)(=O)c1ccc(CN2CCCCC2c2cccc(F)c2)cc1 (stereo not given)	-9.66%
CN(C)C(=O)C(C)(C)c1ccc2c(c1)OCCO2	-5.25%
COCCN1CCC12CCN(c1ncccn1)C2 (stereo not given)	-5.32%
CN(C)c1ncc2c(n1)CN(C1CCSCC1)C2=O	22.1%
CN(C)CCN(CC1CCCO1)S(=O)(=O)NCc1ccccc1 (stereo not given)	-6.41%
COC(=O)c1cccc(S(=O)(=O)Nc2ccc(F)c(C(N)=O)c2)c1	14.1%
CNC(=O)COc1nc(C(C)(C)C)no1	3.09%
CCN(C)C[C@@H]1CN(Cc2cccc(Cl)c2)C[C@@H]1CO	-11.5%
CCN(C)c1ccc(CNS(=O)(=O)CC2CCCO2)cc1F (stereo not given)	-16%
c1cc(CN2C[C@@H]3COC[C@]3(COCC3CC3)C2)ccn1	11.6%
CCN(C(=O)Cc1ccc(NCc2ncc[nH]2)cc1)c1ccccc1	-5.61%
CNc1cc(C)nc(C2COCCN2CCc2ccc(F)cc2)n1 (stereo not given)	-4.38%
Cc1[nH]ccc1C(=O)N1CCC(c2nnc(Cn3ccnc3)n2C)CC1	-11.8%
COc1cccc(CNC2CCc3ccc(C)cc32)n1 (stereo not given)	-9.15%
CCn1c(CC2CCN(S(=O)(=O)Cc3ccccc3)CC2)nn(C)c1=O	-9.61%
CC(C)Cn1cncc1CNC(=O)c1cccc(-n2cnnc2)c1	8.85%
Cc1cccc(CN2C(=O)CCC23CCN(Cc2ccoc2)CC3)n1	-0.993%

SMILES	cytotoxicity at 70.5 h
CCC(=O)N1CCC(c2ncc3c(n2)CCNC3)CC1	-4.58%
Cc1cccc(-c2nc(N)nc3c2CN(C(=O)c2ccncn2)C3C)c1 (stereo not given)	-18.2%
O=C(CCc1ccccc1)N1CCn2cc(CN3CCCC3)nc2C1	-11.7%
Cc1noc(CCNS(=O)(=O)N2CCCC2c2ccc(C)o2)n1 (stereo not given)	9.73%
COCc1noc(C2(c3ccc(F)cc3)CC2)n1	12.6%
COCCN1C(=O)C2(CCC(C(=O)Nc3ccc(F)cc3)CC2)N=C1C (stereo not given)	-7.58%
CC(C)Oc1ccc(Cl)c(C(=O)N2CCN(CCO)CC2)n1	-12.1%
CNC(=O)c1ccc(-n2c(COCC(=O)O)nc3c(C)cccc32)o1	-1.45%
COCCC(=O)N1CCC2(CCN(Cc3ccc(C)cc3)CC2)C1	-7.89%
CN(Cc1ccc(F)cc1)C(=O)CN1CCOC(Cn2cccn2)C1 (stereo not given)	0.224%
Cc1cn[nH]c1C1CCCCN1C(=O)CCN1CCCCCC1 (stereo not given)	-36.7%
Cc1cc(CN2C[C@@H]3CN(C(=O)c4ccsc4)CCO[C@@H]3C2)no1	5.07%
Cc1nccn1CCC1CCN(C(C)C)CC1	-2.75%
Cc1cc(C(F)(F)F)nc(CCNC(C)Cn2ccnc2)n1 (stereo not given)	-23.4%
Cn1cnc(NC(=O)C2CC(=O)N(c3cccc(F)c3)C2)n1 (stereo not given)	18.3%
CN(CCS(C)(=O)=O)C1CCCN(Cc2noc(C3CC3)n2)C1 (stereo not given)	17.9%
CC(C)CNS(=O)(=O)c1ccc(C(=O)N(C)CCc2cn[nH]c2)cc1	-8.39%
NC1CCN(C2CCN(c3ccc(-c4ccco4)cc3)CC2)CC1	-12%
Cn1ncnc1-c1ccnc(NCCCc2ccncc2)n1	-17.5%
CN1C(=O)C2(CC(=O)Nc3c2cnn3C(C)(C)C)c2c(Cl)cccc21 (stereo not given)	-19.1%
CCS(=O)(=O)CC(=O)NC(C)c1ccccc1Oc1ccccc1 (stereo not given)	2.99%
CC(c1cccnc1)N(C)Cc1csc(-c2ccccn2)n1 (stereo not given)	8.67%
CSc1ccc(CN2CCn3nc(CNC(C)=O)cc3C2)cc1	-28.8%
